Laboratory results published in patent publication US20140128472A1, “TREATMENT AND PREVENTION OF DISEASES RELATED TO OXIDATIVE STRESS” (UNIVERSITY OF PÉCS, priority 2011, published 2014).
“Also recorded” adds a separate entry of the source.

Legend:
[1] = system: thoracic and abdominal aorta, renal and femoral arteries; test: Insulin-induced relaxation of isolated arterial segments after oral tyrosine isomer supplementation of rats; format: in vivo, Sprague-Dawley rats; details: for Insulin-induced relaxation, abdominal aorta, femoral (and renal) arteries / Insulin-induced relaxation, thoracic aorta: 1.76 mg/die per os; for Insulin-induced relaxation, abdominal aorta, femoral (and renal) arteries: compared to control; for Insulin-induced relaxation, thoracic aorta: compared to control/other groups; for Chronic effects on insulin-induced vasorelaxation after washout: 8th week, 4 weeks washout, all segments
Protocol: The experiments were carried out with the permission of the Hungarian Local Animal Experiment Committee. Shortly after weaning male CFY rats (a strain of the Sprague-Dawley rat) were placed in individual cages and held on regular diet. After two hours of fasting animals (4-5 week-old, 80-140 g) were loaded with 1.76 mg/die para-, meta- or ortho-tyrosine (p-, m-, o-tyr; Sigma-Aldrich, Inc., St. Louis, Mo. 63178, USA) dissolved in saline or vehicle (saline only) by gavage (per os) six days of the week. After one month treatment, animals were either anaesthetized with ether and were decapitated with a guillotine or p-, m-, o-tyr and vehicle supplementation was discontinued (“washout” period) and they were sacrificed […] (FIG. 8.A). The descending thoracic and abdominal aorta, renal and femoral arteries were removed and cleaned from connective tissue (FIG. 19). Sections were immediately hydrolyzed for HPLC analysis or were used for vascular reactivity studies.
(§1) In further tyrosine isomer incorporation studies when effects of chronic oral p-Tyr and o-Tyr supplementation of rats on the o-Tyr level and insulin-induced relaxation of isolated arterial segments were studied, 18 Male Sprague-Dawley rats (5-6 week-old) were used. Rats were orally supplied with either 1.76 mg/die of p-Tyr or o-Tyr or vehicle during six days per week for four weeks. […] At the end of four-week treatment, HPLC and vasomotor studies were performed. In another group of rats, p-Tyr/o-Tyr supplementation was discontinued for four weeks (“washout” period), after which they were sacrificed for HPLC and vasomotor studies.
The modified method of Fésüs et al. (Fésüs2007) was used. The distal parts of the vessels were dissected into 2 mm long segments in ice-cold Krebs buffer and rings were mounted on two stainless steel wires (40 μm in diameter) in a Danish Multimyograph Model 610M (DMT-USA Inc., Atlanta, Ga., USA). Vessels were bathed in Krebs buffer (containing 119 mM NaCl, 4.7 mM KCl, 1.2 mM KH2PO4, 25 mM NaHCO3, 1.2 mM Mg2SO4, 11.1 mM glucose, 1.6 mM CaCl2*2H2O, pH 7.4) and gassed with 5% CO2 and 95% O2 at 37° C. The resting tension/internal circumference relationship for each vessel was determined and then the internal circumference was set to 0.9×L100, where L100 is the internal circumference the vessel would have had in vivo when relaxed under a transmural pressure of 100 mmHg After this normalization procedure vessels were allowed to stabilize for 30 min, and then isometric tension was continuously recorded. Rings were preconstricted with 100 nM epinephrine. After reaching a stabile contraction plateau, relaxant responses to increasing doses of insulin were assessed. The rate of relaxation was expressed as percentage of the contraction evoked by epinephrine (100%). Para-, meta-, ortho-tyrosine or vehicle were added to the vessel chamber 10 minutes before the addition of epinephrine and 30 minutes before the addition of insulin.

[2] = Body weight of rats during four-week tyrosine isomer supplementation; format: in vivo, Sprague-Dawley rats; details: four weeks, 1.76 mg/die, vs vehicle
Protocol: as §1

[3] = system: 3T3-L1 adipocytes; test: Insulin-dependent uptake of deoxy-D-glucose 2-[1 2-3H(N)] into 3T3-L1 adipocytes; format: cell-based, mouse
Protocol: Primary cultures of mouse embryo fibroblasts (3T3-L1) were purchased from ATCC (Manassas, US). Early passages of 3T3-L1 fibroblasts were cultured in Dulbecco's modified Eagle medium ((DMEM, Invitrogen, CAT number: 41966-029; Sigma Aldrich CAT number: D6046) supplemented with 10% Fetal Bovine Serum (Gibco, CAT number: 16170-078), 100 U/ml penicillin and 0.1 mg/ml streptomycin (Gibco, CAT number: 15070-063) and 398 nM p-, m-, or o-Tyr. DMEM contained 25 or 5 mM glucose (depending on the experiment), L-glutamine, and pyruvate. Cells were grown in a humidified incubator at 37° C. and 5% CO2. Differentiation medium consisted of DMEM supplemented with 10% Fetal Bovine Serum (FBS, Gibco, Csertex, Budapest, Hungary, CAT number: 10106-169) (FBS), to which a cocktail was added containing […] isobuthylmethylxanthine (Sigma Aldrich, CAT number: I 5879), 0.17 nM insulin (Sigma Aldrich, CAT number: I 9278) and 250 nM dexamethasone (Sigma Aldrich, CAT number: 861871). From Day 4 onward, cells were maintained in DMEM/10% FBS containing […] insulin with a media change every other day until experimental treatments were initiated. For all treatments, cells were incubated overnight in serum-deprived medium after 90% of the cell population reached the adipocyte phenotype.
Cells were incubated in glucose free DMEM (Gibco, Csertex, Hungary) for 30 minutes, then treated with 2, 20, 200 or 400 nmol/l insulin for 100 minutes. Simultaneously 1 μCi/ml deoxy-D-glucose 2-[1 2-3H(N)] (3.7×104 Bq/ml) (Izotóp Intézet, Hungary) was added to the plates for 100 minutes Cells were scraped into the medium and centrifuged for 5 minutes at 1000 rpm. The sediment was dissolved in 70 μl of lysis-buffer and glucose uptake was assessed by scintillation counting measuring 30 μl of the sample with a Beckman LS 5000 TD counter in counts per minute (CPM) for five minutes each, using an average activity as the outcome. Samples were frozen overnight at −70° C. and protein concentration was measured using a Hitachi spectrophotometer. Results were normalized for protein content (Kaddai2009).

[4] = cells grown 11 days on medium with the tyrosine isomer + 5 mM glucose, insulin 2, 20, 200, 400 nM

N[C@@H](Cc1ccc(O)cc1)C(=O)O [p-Tyr, Para-L-tyrosine]
Insulin-induced relaxation, abdominal aorta, femoral (and renal) arteries ([1]; 4th week): could not detect significant difference
Insulin-induced relaxation, thoracic aorta ([1]; 4th week): increased insulin-induced relaxations only in the thoracic aorta; also recorded: increased relaxation in response to insulin; also recorded: higher vasorelaxation response to insulin; also recorded: greater vasorelaxation
Chronic effects on insulin-induced vasorelaxation after washout [1]: completely abolished
Body weight [2]: no difference between the groups
Insulin-dependent deoxy-D-glucose uptake [3, 4]: increasing concentrations of insulin lead to an increase in deoxy-D-glucose uptake
Insulin-dependent deoxy-D-glucose uptake ([3]; cells grown 11 days on p-Tyr + high glucose (25 mM)): insulin failed to increase glucose uptake
Increase in glucose uptake by insulin ([3]; cells grown on p-Tyr and normal glucose, insulin 400 nM): approx. 2 fold
Excess concentration of p-Tyr over m-Tyr or o-Tyr in the media needed to compete ([3]; read from FIG. 3, insulin 400 nM): 8-32 fold

N[C@@H](Cc1ccccc1O)C(=O)O [o-Tyr, Ortho-L-tyrosine]
Insulin-induced relaxation, abdominal aorta, femoral (and renal) arteries ([1]; 4th week): significantly diminished response to insulin
Insulin-induced relaxation, thoracic aorta ([1]; 4th week): no significant difference; also recorded: did not observe any significant further decline of response to insulin
Insulin-induced relaxation, all three isolated segments compared to the p-Tyr-treated group ([1]; 4th week, thoracic and abdominal aorta, femoral artery): markedly attenuated insulin-induced relaxations
Chronic effects on insulin-induced vasorelaxation after washout [1]: completely abolished
Body weight [2]: no difference between the groups
Insulin-induced glucose uptake at equimolar concentrations with p-Tyr ([3]; 72-72 mg/l m-Tyr or o-Tyr and p-Tyr, insulin 400 nM): fully inhibit insulin-induced glucose uptake; also recorded: insulin had no effect on glucose uptake at all
Insulin-dependent deoxy-D-glucose uptake [3, 4]: no insulin effect could be verified
Baseline glucose uptake ([3]; cells grown on m-Tyr- or o-Tyr-containing medium (72 mg/l) for different time periods, no insulin): did not show a marked change
Insulin-induced glucose uptake, time dependence ([3]; m-Tyr or o-Tyr 72 mg/l for different time periods, insulin 400 nM, time-dependent manner): blocked
Ability to inhibit insulin-induced glucose uptake, dependence on concentration ([3]; m-Tyr or o-Tyr 2.25-72 mg/l with p-Tyr 72 mg/l, insulin 400 nM): concentration-dependent
